One data set in a line: Particle size distribution by laser-diffraction method (Mastersizer 2000, dry mode). Particulars: dispersion air pressure 2 Bar, volume conversion. It counts as physicochemical. The text has this:
The acetaminophen to be used in the manufacturing method of the present invention (also referred to as “the present acetaminophen”) has a particle size distribution such that d10 is generally 5 to 300 μm, preferably 10 to 200 μm, more preferably 15 to 100 μm, and d90 is generally 200 to 900 μm, preferably 250 to 800 μm, more preferably 300 to 700 μm. Although there are some differences in the particle size distribution among lots, the unpulverized acetaminophen generally has the above-specified particle size distribution. In contrast, although there are some differences in the particle size distribution of a pulverized product of acetaminophen among the manufacturers of the drug substance and production lots, the particle size distribution of a pulverized product of acetaminophen is generally such that the d10 is 3 to 10 μm and d90 is 100 to 250 μm, and therefore the particle diameters of the pulverized product of acetaminophen are smaller compared with those of the present acetaminophen. In the present invention, the particle size distribution is determined by a volume distribution evaluation employing a laser-diffraction scattering method (Mastersizer 2000: Malvern), and the terms “d10”, “d50”, and “d90” refer to particle diameters at a volume cumulative 10% point, a volume cumulative 50% point, and a volume cumulative 90% point, respectively, as observed from the smaller diameter side in the particle size distribution.
Each of unpulverized products of acetaminophen (lots A to D) and a pulverized product of acetaminophen (lot P) was subjected to a particle size distribution measurement using a particle measurement method (a dry mode measurement) by a laser-diffraction method. As a machine, a dry automated dispersion unit microtray (Mastersizer 2000, Malvern) was used, the dispersion compression air pressure was 2 Bar, and the analysis of particle size distribution was performed by a volume conversion method. The results of lots E, F, Q, and R are data which were obtained by another company using a different measurement apparatus under different measurement conditions from those employed in the test of the present invention. As shown in the results of Table 1, difference may sometimes occur depending on the measurement conditions and measurement apparatuses used in the measurement of particle size distribution.
For `CC(=O)Nc1ccc(O)cc1` [Lot P, acetaminophen], the D10 is listed as 3.7 μm and the D90 came to 166 μm.
The corresponding values for `CC(=O)Nc1ccc(O)cc1` [Lot A, acetaminophen] are 20 μm and 320 μm.
The matching figures for `CC(=O)Nc1ccc(O)cc1` [Lot C, acetaminophen]: 26 μm and 419 μm.
The matching figures for `CC(=O)Nc1ccc(O)cc1` [Lot D, acetaminophen]: 20 μm and 464 μm.
Compound `CC(=O)Nc1ccc(O)cc1` [Lot B, acetaminophen] showed a D10 of 30 μm and a D90 of 551 μm.

Test in another data set: not given
Particulars: data of another company, different apparatus and conditions; cited from earlier work.
Regarding `CC(=O)Nc1ccc(O)cc1` [Lot F, acetaminophen], the D10 was 220 μm and the D90 is 663 μm.
For `CC(=O)Nc1ccc(O)cc1` [Lot R, acetaminophen], the D10 was 9.7 μm and the D90 was 192 μm.
For the compound `CC(=O)Nc1ccc(O)cc1` [Lot Q, acetaminophen], the D10 is given as 5.8 μm and the D90 is reported as 104 μm.
Consider `CC(=O)Nc1ccc(O)cc1` [Lot E, acetaminophen], for which the D10 is given as 93 μm and the D90 is 559 μm.

(Values after US11433031B2, “Method for manufacturing acetaminophen preparation” (NIPPON ZOKI PHARMACEUTICAL CO., LTD., priority 2016, dated 2022).)
